Test results published in PubChem BioAssay AID588764 (Broad Institute, 2011).
Inconclusive results are not listed. Activity calls are given as the source filed them. How the calls were made is not given here.

Biological target: Histone acetyltransferase RTT109 (Candida albicans (strain SC5314 / ATCC MYA-2876)) (UniProt Q5AAJ8)
Assay: Rtt109/Vps75 acetyltransferase inhibitor potency, dose response, biochemical, cherry-picked hits, plate reader (AID 588764);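 on activity change, negative = inhibition: 0% = neutral control wells and -100% = no enzyme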
Settings: Rtt109/Vps75 HAT activity

Chain of Histone acetyltransferase RTT109 (Candida albicans (strain SC5314 / ATCC MYA-2876)) (Q5AAJ8 whole entry, looked up): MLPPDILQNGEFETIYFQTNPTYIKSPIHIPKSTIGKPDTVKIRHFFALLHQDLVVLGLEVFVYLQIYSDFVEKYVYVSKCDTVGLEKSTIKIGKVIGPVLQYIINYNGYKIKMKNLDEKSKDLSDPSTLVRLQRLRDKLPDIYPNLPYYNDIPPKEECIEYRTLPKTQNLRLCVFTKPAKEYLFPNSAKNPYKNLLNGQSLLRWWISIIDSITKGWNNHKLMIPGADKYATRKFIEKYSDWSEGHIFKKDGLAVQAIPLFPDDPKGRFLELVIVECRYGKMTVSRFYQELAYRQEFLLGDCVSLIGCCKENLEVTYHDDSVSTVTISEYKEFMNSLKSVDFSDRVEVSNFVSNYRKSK

Row | SMILES | AC50 [µM]
1 | C[C@]12CC[C@@H]3c4cc(O)c(O)cc4CC[C@H]3[C@@H]1CC[C@@H]2O | 9.63
2 | Cc1cc(C)c2c(=O)n(CC(=O)Nc3cccc(Cl)c3C)sc2n1 | 1.98
3 | CCN1CCN(C(c2cccnc2)c2cc(Cl)c3cccnc3c2O)CC1 (stereo not drawn) | 13.9
4 | Cc1ccc(S(=O)(=O)CCC(=O)c2cccc([N+](=O)[O-])c2)cc1 | 8.29
5 | CC(C)(C)c1cc(C(c2cccnc2)N2CCN(CCO)CC2)cc(C(C)(C)C)c1O (stereo not drawn) | 9.87
6 | COC(=O)c1cccc(-n2sc3ccccc3c2=O)c1 | 4.38
7 | CC[C@@H](C)[C@H](NC(=O)OC(C)(C)C)c1nnc(S(=O)(=O)Cc2cc(C)ccc2C)o1 | 12.6
8 | CN1CCc2cccc3c2[C@H]1Cc1ccc(O)c(O)c1-3 | 18.4
9 | COC(=O)c1cccc(N2C(=O)C(Cl)=C(N3CCOCC3)C2=O)c1 | 15.8
10 | O=[N+]([O-])c1ccc(Sc2cccc[n+]2[O-])c2nonc12 | 11.6
11 | COc1ccc(-n2sc3ccc(F)cc3c2=O)cc1 | 6
12 | CCOC(=O)/C=C/C(=O)Nc1cccc([N+](=O)[O-])c1 | 5.91
13 | CC1=C(C)/C(=N\OS(=O)(=O)c2ccc(C)cc2)C=CC1=O | 8.6
14 | CC1CCc2c(sc(N)c2C(N)=O)C1 (stereo not drawn) | 20.5
15 | COc1ccc(OC)c2sc(N(CCCN(C)C)C(=O)CCS(=O)(=O)c3ccccc3)nc12 | 20.1
16 | Cc1ccccc1-n1sc2cc(F)ccc2c1=O | 5.9
17 | O=C(CCC(=O)OCC(=O)c1ccc([N+](=O)[O-])cc1)Nc1ccccc1Cl | 8.57
18 | Cc1cccc(N2C(S)=C(C#N)C(=O)NC2c2cccs2)c1 (stereo not drawn) | 11.7
19 | O=S(=O)(Nc1cc(Sc2ncn[nH]2)c(O)c2ccccc12)c1ccccc1 | 4.1
20 | O=c1[nH]c2ccccc2n2c(-c3ccccc3)nnc12 | 1.98
21 | Oc1cc(O)c(CN2CCOCC2)cc1CN1CCOCC1 | 19.5

Same assay, conditions: Rtt109/Vps75 HAT activity, at 19.5 µM (top of the series)

Row | SMILES | activity change, negative = inhibition
22 | O=C1Nc2cc(C(=O)NCCCN3CCCC3)ccc2S/C1=C\c1ccccc1 | inactive
23 | Cc1ccccc1C(=O)NCCNC(=O)c1ccco1 | inactive
24 | Cc1ccc(/C=C2\SC(=S)N(C(Cc3ccccc3)C(=O)O)C2=O)cc1 (stereo not drawn) | inactive
25 | O=C1CCC(=O)N1c1ccc(-c2nc3ccccc3s2)cc1 | inactive
26 | COc1ccc(CNC(=O)COC(=O)c2ccc(S(=O)(=O)N3CCCCC3)cc2)cc1 | inactive
27 | Cc1ccc2nc(N(CCCN(C)C)C(=O)c3sc4ccccc4c3Cl)sc2c1 | inactive
28 | NCC12CC3CC(C1)CC(c1ccc(Cl)cc1)(C3)C2 | inactive
29 | COc1cc(SC#N)ccc1N=Cc1c(C)[nH]n(-c2ccc(C)c(C)c2)c1=O | inactive
30 | CCc1ccccc1NC(=O)C1CCN(C(=O)c2ccc([N+](=O)[O-])cc2)CC1 | inactive
31 | O=C(NCc1ccncc1)C(=O)NCC(c1ccco1)N1CCN(c2ccc(F)cc2)CC1 (stereo not drawn) | inactive
32 | COc1ccc2nc(NC(=O)CN3C(=O)NC4(CCCCC4)C3=O)sc2c1 | inactive
33 | Cc1nc2ccccc2n1CC(=O)NC1CCCC1 | inactive
34 | Cc1ccc(C(=O)NCC(=O)NCC(c2ccco2)N2CCCCC2)cc1C (stereo not drawn) | inactive
35 | CC#CCN(CC#CC)S(=O)(=O)c1ccc(-n2cnnn2)c(OC)c1 | inactive
36 | O=C(Nc1ccccc1Cl)c1cc(S(=O)(=O)N2CCCCC2)ccc1N1CCOCC1 | inactive
37 | COc1ccccc1NC(=O)CSC(N)=O | inactive
38 | COc1cccc(NC(=O)CSc2nc3c(sc4ccccc43)c(=O)n2CCN(C)C)c1 | inactive
39 | O=C(C1CCCO1)N1CCN(C(=S)Nc2ccc(Cl)cc2Cl)CC1 (stereo not drawn) | inactive
40 | Cc1cccc(-n2c(SCC(N)=O)nc3c(c2=O)C2(CCCCC2)Cc2ccccc2-3)c1 | inactive
41 | CCN(c1ccc(OC)cc1)S(=O)(=O)c1nnc(NC(=O)COc2ccc(C)cc2)s1 | inactive
42 | O=C1COc2ccc(C(=O)c3ccccc3C(=O)NCc3ccco3)cc2N1 | inactive
43 | O=C(C[n+]1cc(-c2ccc(Cl)c(Cl)c2)n2c1CCC2)N1c2ccccc2Sc2ccccc21 | inactive
44 | O=C(NCc1ccc(Cl)cc1)c1ccccc1CCc1ccccc1 | inactive
45 | COC(=O)c1cc2c(ccn2-c2ccc(F)cc2)n1CC(=O)C(C)(C)C | inactive

Row | SMILES | activity change, negative = inhibition
46 | COC(=O)c1cccc(Oc2cccc(Cl)n2)c1 | inactive
47 | O=S(=O)(Nc1ccc(O)c(Sc2nc3ccccc3s2)c1)c1cccc2ccccc12 | inactive
48 | Cc1cccn2cc(CCNS(=O)(=O)c3cccs3)nc12 | inactive
49 | Fc1ccccc1C1CC(c2ccco2)=Nc2ccccc2S1 (stereo not drawn) | inactive
50 | NNc1n[nH]c(=S)n1N | inactive
51 | CC1CCCC(NS(=O)(=O)c2cccc3nsnc23)C1C (stereo not drawn) | inactive
52 | O=C1CN(C(=O)/C=C/c2ccc(Cl)cc2)c2ccccc2N1 | inactive
53 | COc1ccc(N2CCN(C(=O)CNC(=O)Cc3ccccc3)CC2)cc1 | inactive
54 | O=C(CCc1nnc(C2(c3ccc(Cl)cc3)CCC2)o1)NCCCn1cccn1 | inactive
55 | C#CCOCCOCCOCCNc1nc(N2CCN(C(=O)[C@H](CCCN=C(N)N)n3cc(C(N)[C@@H](C)CC)nn3)CC2)nc(N2CCN(C(=O)[C@H](CCCCN)n3cc([C@@H](N)CC(N)=O)nn3)CC2)n1 (stereo partly drawn) | inactive
56 | COCCNC(=O)C(c1ccc(O)cc1)N(Cc1ccccc1)C(=O)CCC(=O)Nc1ccccn1 (stereo not drawn) | inactive
57 | COc1ccc(NC(=O)c2nc3ccccc3s2)cc1 | inactive
58 | CCC(=O)Nc1cc(C)c(OC)c(C)c1 | inactive
59 | COc1ccc2[nH]c(=O)c(CN(Cc3nnnn3Cc3ccccc3)CC3CCCO3)cc2c1 (stereo not drawn) | inactive
60 | Cc1nn(CC(=O)NCc2cccnc2)c(C)c1[N+](=O)[O-] | inactive
61 | Cc1nn(C)cc1[C@@H]1C[C@H]2CN(Cc3cccc(Cl)c3)C(=O)[C@]23CCCN13 | inactive
62 | COCCNC(=O)C1=C(N)C(C(=O)Nc2ccc(C)c(S(=O)(=O)N3CCCCC3)c2)SC1=Nc1ccc(C)cc1C (stereo not drawn) | inactive
63 | O=C(NCC(=O)N1CCCCC1)c1ccc2ccccc2c1 | inactive
64 | COc1ccc(NC(=O)Nc2nnc(-c3cccs3)s2)cc1 | inactive
65 | CN(C)c1ccc(/C=C/c2cc[n+](C)c3ccccc23)cc1 | inactive
66 | CC(C)C[C@@H]1CN=C(N)N1C[C@@H]1CCCN1C[C@H](C)N1C[C@@H](Cc2ccccc2)N(CCc2ccc(Cl)c(Cl)c2)C1=N | inactive
67 | COc1ccccc1NS(=O)(=O)c1ccc(C)c(C(=O)NCC2(N(C)C)CCCCC2)c1 | inactive
68 | CN(CC(=O)Nc1ccc(Cl)cc1)C(=O)c1cccc(S(=O)(=O)NCc2ccccc2)c1 | inactive
69 | CC(=O)Nc1ccc(OCc2cccc([N+](=O)[O-])c2)cc1 | inactive

Row | SMILES | activity change, negative = inhibition
70 | COc1cccc(OC)c1C(=O)Nc1cccc(-c2ccc(N3CCOCC3)nn2)c1 | inactive
71 | N=c1n(CCN2CCCCC2)c2ccccc2n1CC(O)c1ccc(Cl)c(Cl)c1 (stereo not drawn) | inactive
72 | Cc1[nH]n(-c2ccccc2)c(=O)c1C=NC1CCCCC1 | inactive
73 | CCCCS(=O)(=O)c1sc2nc(C)cc(C)c2c1N | inactive
74 | CN(CC(=O)Nc1ccc(F)cc1)C(=O)COc1ccccc1Cc1ccccc1 | inactive
75 | Cc1cccc(NC(=O)CCN2C(=O)c3ccccc3C2=O)c1 | inactive
76 | CN(C)c1ccc(/C=C/c2ccc3c4ccccc4ccc3[n+]2-c2ccccc2)cc1 | inactive
77 | CCN(CC)S(=O)(=O)c1ccc(C(=O)Nc2cc(S(=O)(=O)N3CCOCC3)ccc2N2CCN(C)CC2)cc1 | inactive
78 | CCOC(=O)c1c(C)n(-c2ccc(C)cc2)c2ccc(OCC(O)CNCC3CCCO3)cc12 (stereo not drawn) | inactive
79 | CC1(C)OC(=O)N(c2ccccc2)C12C=Cc1cc(Br)ccc1O2 (stereo not drawn) | inactive
80 | Cc1ccc(NC(=S)Nc2ccc(F)cc2)cc1C | inactive
81 | CCOC(=O)c1cc2c(N)c(C(=O)c3cc(C#N)c(SC)nc3C)sc2nc1C | inactive
82 | Nc1c(C(=O)c2ccccc2)oc2ccc([N+](=O)[O-])cc12 | inactive
83 | COc1ccc(-c2nc(-c3cccs3)no2)cc1 | inactive
84 | O=C1/C(=C/c2ccc(F)cc2)SC(=S)N1CC(=O)N1CCCCC1c1cccnc1 (stereo not drawn) | inactive
85 | Cc1ccc(C(=O)NCC(=O)OCCOc2ccccc2Cl)cc1 | inactive
86 | CC(C(=O)Nc1ccc(O)c(C(=O)O)c1)N1C(=O)/C(=C/c2cccs2)SC1=S (stereo not drawn) | inactive
87 | COc1cccc(C(=O)NNC(=O)CCC(=O)O)c1 | inactive
88 | Cc1ccc(S(=O)(=O)c2nc(-c3ccccc3)oc2N2CCC(C(N)=O)CC2)cc1 | inactive
89 | O=C(CSc1nnc2ccccn12)NNC(=O)c1cccc(Cl)c1 | inactive
90 | C=CCOc1ccc(/C(O)=C2\C(=O)C(=O)N(CCOC)C2c2cccnc2)cc1 (stereo not drawn) | inactive
91 | CCCCOc1ccc(C2C(C(=O)c3ccc(C)o3)=C(O)C(=O)N2Cc2ccco2)cc1 (stereo not drawn) | inactive
92 | COc1ccc(/C=C2/SC(=O)N(NS(=O)(=O)c3ccccc3)C2=S)cc1OC | inactive
93 | O=S(=O)(c1ccc(Cl)cc1)N1CCN(c2ncccn2)CC1 | inactive
